Results reported in paper PMC6632053, “Incorporation of Putative Helix-Breaking Amino Acids in the Design of Novel Stapled Peptides: Exploring Biophysical and Cellular Permeability Properties” (Molecules, 2019).
Where “and” joins values, the source holds several entries; their conditions need not be identical. Identical values can stand only once. Like-named read-outs stand apart in the source and are kept apart here. Bridge positions count the residues as written; N and C are the ends. Square brackets hold non-standard residues; d marks the D form. Peptide text beside a SMILES is read from it. R8 = C=CCCCCCC[C@@](C)(N)C(=O)O; Cba = N[C@@H](CC1CCC1)C(=O)O; S5 = C=CCCC[C@](C)(N)C(=O)O

Assays:
[1] = Circular dichroism (CD) α-helicity; format: physicochemical; conditions: for Helicity (%): CD of free peptide, 25 °C, 1 mM Hepes pH 7.4, 5% methanol
Protocol: A total of 5 µL of the 10 mM stock peptide was mixed with 45 µL of 100% methanol, and dried for 2 h in the SpeedVac concentrator (Thermo Scientific). The dried peptide was reconstituted in a buffer (1 mM Hepes pH 7.4 and 5% methanol) to a concentration of 1 mM. The peptide sample was placed in a quartz cuvette with a path length of 0.2 cm. The peptide concentration was determined by the absorbance of the peptide at […]. The CD spectrum was recorded from 300 to 190 nm using the Chirascan-plus qCD machine (Applied Photophysics, Surrey, UK), at 25 °C. All experiments were done in duplicates. The CD spectrum was converted to mean residue ellipticity, before deconvolution and estimation of the secondary structure components of the peptide using the CDNN software (distributed by Applied Photophysics).

[2] = target: T1, human Mdm2 1–125 (Homo sapiens, UniProt Q00987); assay: Mdm2 binding assay (competitive fluorescence anisotropy/polarization)
T1 construct: GST (N); His6 (internal); TEV cleavage site ENLYFQG (internal); made in house; host or cells: Escherichia coli BL21 (DE3) Rosetta T1R
Protocol: The TEV (tobacco etch virus) cleavage site was changed from ENLYFQS to ENLYFQG to give a fusion protein with the following sequence:
Titrations were carried out with the concentration of Mdm2 held constant at 250 nM and the labeled peptide at 50 nM. The competing molecules were then titrated against the complex of the FAM-labeled peptide and protein. Apparent Kd values were determined by fitting the experimental data to the equations shown below:(2) r=r0+(rb−r0)×2(d^2−3e)cos(θ/3)−9/3Kd1+2(d^2−3e)cos(θ/3)−dd=Kd1+Kd2+[L]st+[L]t−[P]te=([L]t−[P]t)Kd1+([L]st−[P]t)Kd2+Kd1Kd2f=−Kd1Kd2[P]tθ=arcos[−2d^3+9de−27f/2(d^2−3e)^3] where [L]st and [L]t denote labeled ligand and total unlabeled ligand input concentrations, respectively. Kd2 is the dissociation constant of the interaction between the unlabeled ligand and the protein. In all competition experiments, it was assumed that [P]t > [L]st, otherwise considerable amounts of free labeled ligand would always be present and would interfere with measurements. Kd1 is the apparent Kd for the labeled peptide used and was experimentally determined as described in the previous paragraph. The FAM-labeled peptide was dissolved in dimethyl sulfoxide (DMSO) at 1 mM and diluted into the experimental buffer. Readings were carried out with an Envision Multilabel Reader (PerkinElmer). Experiments were carried out in PBS (2.7 mM KCl, 137mM NaCl, 10 mM Na2HPO4, and 2 mM KH2PO4 (pH 7.4)) and 0.1% Tween 20 buffer. All titrations were carried out in triplicate. Curve-fitting was carried out using Prism 4.0 (GraphPad). […] Negative control titrations of the ligands under investigation were also carried out with the fluorescently labeled peptide (in the absence of Mdm2) to ensure no interactions were occurring between the ligands and the FAM-labeled peptide.

[3] = system: p53 responsive β-lactamase reporter in HCT116 cells; assay: p53 beta-lactamase reporter gene cellular functional assay; format: cell-based; conditions: p53 reporter assay, HCT116, read-out: Cellular (µM), cellular activity (EC50)
Protocol: HCT116 cells were stably transfected with a p53 responsive β-lactamase reporter and were seeded into a 384-well plate at a density of 8000 cells per well. Cells were maintained in McCoy’s 5A Medium with 10% fetal bovine serum (FBS), Blasticidin, and Penicillin/Streptomycin. The cells were incubated overnight, followed by removal of cell growth media and replacement with Opti-MEM either containing 0% FBS or 10% FBS. […] The final working concentration of DMSO was 0.5%. β-lactamase activity was detected using the ToxBLAzer Dual Screen (Invitrogen), as per the manufacturer’s instructions. Measurements were made using the Envision multiplate reader (Perkin–Elmer).

[4] = Table 1, competitive fluorescence polarization, read-out: Mdm2 (nM), Mdm2 binding (Kd)
[5] = Table 2, competitive fluorescence polarization, read-out: Mdm2 (nM), Mdm2 binding (Kd)

T1 sequence (Q00987 with tags, fused parts or gaps): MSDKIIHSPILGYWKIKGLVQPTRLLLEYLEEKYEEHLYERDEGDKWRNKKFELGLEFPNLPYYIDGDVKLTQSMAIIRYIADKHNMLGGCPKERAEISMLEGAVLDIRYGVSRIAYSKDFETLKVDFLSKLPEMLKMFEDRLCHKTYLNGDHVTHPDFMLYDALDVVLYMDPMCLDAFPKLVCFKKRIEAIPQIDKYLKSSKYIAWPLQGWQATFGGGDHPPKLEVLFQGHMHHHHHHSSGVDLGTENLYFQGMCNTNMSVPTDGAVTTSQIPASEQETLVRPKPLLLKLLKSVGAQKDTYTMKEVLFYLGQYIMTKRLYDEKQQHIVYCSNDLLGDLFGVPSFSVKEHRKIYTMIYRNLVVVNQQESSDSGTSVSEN

SMILES | Helicity (%) ([1]; Table 1) | Kd [2, 4] | EC50 ([3]; Table 1) | Helicity (%) ([1]; Table 2) | Kd [2, 5] | EC50 ([3]; Table 2) | α-helicity by CD ([1]; listed as Pro^9) | Kd [2]
CC(=O)N[C@@H](CC(C)C)C(=O)N[C@H](C(=O)N[C@@H](C)C(=O)N[C@]1(C)CCCCCCC=CCCC[C@@](C)(C(=O)N[C@@H](CO)C(=O)N[C@@H](C)C(=O)N[C@@H](C)C(N)=O)NC(=O)[C@H](CC2CCC2)NC(=O)[C@H](CC(C)C)NC(=O)[C@H](CCC(N)=O)NC(=O)[C@H](Cc2c[nH]c3ccccc23)NC(=O)[C@H](Cc2ccc(O)cc2)NC(=O)[C@H](CCC(=O)O)NC1=O)[C@@H](C)O [Peptide F3A] (Ac-LTA[R8]EYWQL[Cba][S5]SAA-NH2; staple 4-11) | 48.4% | 3600 nM | 37 µM |  |  |  |  | 
CC(=O)N[C@@H](CCCCN=[N+]=[N-])C(=O)NCCC(=O)NCC(=O)N[C@H](C(=O)N[C@@H](Cc1ccccc1)C(=O)N[C@]1(C)CCCCCCC=CCCC[C@@](C)(C(=O)N[C@@H](CO)C(=O)N[C@@H](C)C(=O)N[C@@H](C)C(N)=O)NC(=O)[C@H](CC2CCC2)NC(=O)[C@H](CCC(N)=O)NC(=O)[C@H](C)NC(=O)[C@H](Cc2c[nH]c3ccccc23)NC(=O)[C@H](Cc2ccc(O)cc2)NC(=O)[C@H](CCC(=O)O)NC1=O)[C@@H](C)O [Peptide L1G] |  |  |  | 44.6% | 22.1 nM | 1.6 µM |  | 
CC(=O)N[C@@H](CCCCN=[N+]=[N-])C(=O)NCCC(=O)N1CCC[C@H]1C(=O)N[C@H](C(=O)N[C@@H](Cc1ccccc1)C(=O)N[C@]1(C)CCCCCCC=CCCC[C@@](C)(C(=O)N[C@@H](CO)C(=O)N[C@@H](C)C(=O)N[C@@H](C)C(N)=O)NC(=O)[C@H](CC2CCC2)NC(=O)[C@H](CCC(N)=O)NC(=O)[C@H](C)NC(=O)[C@H](Cc2c[nH]c3ccccc23)NC(=O)[C@H](Cc2ccc(O)cc2)NC(=O)[C@H](CCC(=O)O)NC1=O)[C@@H](C)O [Peptide L1P] |  |  |  | 41.6% | 21.9 nM | 0.75 µM |  | 
CC(=O)N[C@@H](CCCCN=[N+]=[N-])C(=O)NCCC(=O)N[C@@H](CC(C)C)C(=O)N[C@H](C(=O)N[C@@H](Cc1ccccc1)C(=O)N[C@]1(C)CCCCCCC=CCCC[C@@](C)(C(=O)N[C@@H](CO)C(=O)N[C@@H](C)C(=O)N[C@@H](C)C(N)=O)NC(=O)[C@H](CC2CCC2)NC(=O)CNC(=O)[C@H](C)NC(=O)[C@H](Cc2c[nH]c3ccccc23)NC(=O)[C@H](Cc2ccc(O)cc2)NC(=O)[C@H](CCC(=O)O)NC1=O)[C@@H](C)O [Peptide Q9G] |  |  |  | 38.8% | 42 nM | 0.68 µM |  | 
CC(=O)N[C@@H](CCCCN=[N+]=[N-])C(=O)NCCC(=O)N[C@@H](CC(C)C)C(=O)N[C@H](C(=O)N[C@@H](Cc1ccccc1)C(=O)N[C@]1(C)CCCCCCC=CCCC[C@@](C)(C(=O)N[C@@H](CO)C(=O)N[C@@H](C)C(=O)N[C@@H](C)C(N)=O)NC(=O)[C@H](CC2CCC2)NC(=O)[C@@H]2CCCN2C(=O)[C@H](C)NC(=O)[C@H](Cc2c[nH]c3ccccc23)NC(=O)[C@H](Cc2ccc(O)cc2)NC(=O)[C@H](CCC(=O)O)NC1=O)[C@@H](C)O [Peptide Q9P] |  |  |  | 27.4% | 77.1 nM | 3.1 µM | < 30% and 27.4% | 
CC(=O)N[C@@H](CCCCN=[N+]=[N-])C(=O)NCCC(=O)N[C@@H](CC(C)C)C(=O)N[C@H](C(=O)N[C@@H](Cc1ccccc1)C(=O)N[C@]1(C)CCCCCCC=CCCC[C@@](C)(C(=O)NCC(=O)N[C@@H](C)C(=O)N[C@@H](C)C(N)=O)NC(=O)[C@H](CC2CCC2)NC(=O)[C@H](CCC(N)=O)NC(=O)[C@H](C)NC(=O)[C@H](Cc2c[nH]c3ccccc23)NC(=O)[C@H](Cc2ccc(O)cc2)NC(=O)[C@H](CCC(=O)O)NC1=O)[C@@H](C)O [Peptide S12G] |  |  |  | 46.5% |  | 0.65 µM |  | 18.9 nM
CC(=O)N[C@@H](CCCCN=[N+]=[N-])C(=O)NCCC(=O)N[C@@H](CC(C)C)C(=O)N[C@H](C(=O)N[C@@H](Cc1ccccc1)C(=O)N[C@]1(C)CCCCCCC=CCCC[C@@](C)(C(=O)N2CCC[C@H]2C(=O)N[C@@H](C)C(=O)N[C@@H](C)C(N)=O)NC(=O)[C@H](CC2CCC2)NC(=O)[C@H](CCC(N)=O)NC(=O)[C@H](C)NC(=O)[C@H](Cc2c[nH]c3ccccc23)NC(=O)[C@H](Cc2ccc(O)cc2)NC(=O)[C@H](CCC(=O)O)NC1=O)[C@@H](C)O [Peptide S12P] |  |  |  | 30.8% | 45.7 nM | 3.7 µM |  | 

More lines, main results first:

Helicity (%) ([1]; Table 1) | Kd [2, 4] | EC50 ([3]; Table 1) | Helicity (%) ([1]; Table 2) | Kd [2, 5] | EC50 ([3]; Table 2) | α-helicity by CD ([1]; listed as Pro^9) | SMILES | Kd [2]
53.3% | 17.6 nM | 0.5 µM |  |  |  |  | CC(=O)N[C@@H](C)C(=O)N[C@H](C(=O)N[C@@H](Cc1ccccc1)C(=O)N[C@]1(C)CCCCCCC=CCCC[C@@](C)(C(=O)N[C@@H](CO)C(=O)N[C@@H](C)C(=O)N[C@@H](C)C(N)=O)NC(=O)[C@H](CC2CCC2)NC(=O)[C@H](CC(C)C)NC(=O)[C@H](CCC(N)=O)NC(=O)[C@H](Cc2c[nH]c3ccccc23)NC(=O)[C@H](Cc2ccc(O)cc2)NC(=O)[C@H](CCC(=O)O)NC1=O)[C@@H](C)O [Peptide L1A] (Ac-ATF[R8]EYWQL[Cba][S5]SAA-NH2; staple 4-11) | 
48.7% | 12 nM | 0.16 µM |  |  |  |  | CC(=O)N[C@@H](CC(C)C)C(=O)N[C@H](C(=O)N[C@@H](Cc1ccccc1)C(=O)N[C@]1(C)CCCCCCC=CCCC[C@@](C)(C(=O)N[C@@H](CO)C(=O)N[C@@H](C)C(=O)N[C@@H](C)C(N)=O)NC(=O)[C@H](CC2CCC2)NC(=O)[C@H](C)NC(=O)[C@H](CCC(N)=O)NC(=O)[C@H](Cc2c[nH]c3ccccc23)NC(=O)[C@H](Cc2ccc(O)cc2)NC(=O)[C@H](CCC(=O)O)NC1=O)[C@@H](C)O [Peptide L9A] (Ac-LTF[R8]EYWQA[Cba][S5]SAA-NH2; staple 4-11) | 
33.4% | 26.5 nM | 0.1 µM |  |  |  |  | CC(=O)N[C@@H](CC(C)C)C(=O)N[C@H](C(=O)N[C@@H](Cc1ccccc1)C(=O)N[C@]1(C)CCCCCCC=CCCC[C@@](C)(C(=O)N[C@@H](CO)C(=O)N[C@@H](C)C(=O)N[C@@H](C)C(N)=O)NC(=O)[C@H](CC2CCC2)NC(=O)[C@H](CC(C)C)NC(=O)[C@H](C)NC(=O)[C@H](Cc2c[nH]c3ccccc23)NC(=O)[C@H](Cc2ccc(O)cc2)NC(=O)[C@H](CCC(=O)O)NC1=O)[C@@H](C)O [Peptide Q8A] | 
36.5% | 20.4 nM | 0.35 µM |  |  |  |  | CC(=O)N[C@@H](CC(C)C)C(=O)N[C@H](C(=O)N[C@@H](Cc1ccccc1)C(=O)N[C@]1(C)CCCCCCC=CCCC[C@@](C)(C(=O)N[C@@H](C)C(=O)N[C@@H](C)C(=O)N[C@@H](C)C(N)=O)NC(=O)[C@H](CC2CCC2)NC(=O)[C@H](CC(C)C)NC(=O)[C@H](CCC(N)=O)NC(=O)[C@H](Cc2c[nH]c3ccccc23)NC(=O)[C@H](Cc2ccc(O)cc2)NC(=O)[C@H](CCC(=O)O)NC1=O)[C@@H](C)O [Peptide S12A] (Ac-LTF[R8]EYWQL[Cba][S5]AAA-NH2; staple 4-11) | 
36.2% | 21.3 nM | 1 µM |  |  |  |  | CC(=O)N[C@@H](CC(C)C)C(=O)N[C@@H](C)C(=O)N[C@@H](Cc1ccccc1)C(=O)N[C@]1(C)CCCCCCC=CCCC[C@@](C)(C(=O)N[C@@H](CO)C(=O)N[C@@H](C)C(=O)N[C@@H](C)C(N)=O)NC(=O)[C@H](CC2CCC2)NC(=O)[C@H](CC(C)C)NC(=O)[C@H](CCC(N)=O)NC(=O)[C@H](Cc2c[nH]c3ccccc23)NC(=O)[C@H](Cc2ccc(O)cc2)NC(=O)[C@H](CCC(=O)O)NC1=O [Peptide T2A] (Ac-LAF[R8]EYWQL[Cba][S5]SAA-NH2; staple 4-11) | 
